Legend:
Assay in all cases: relative viability (nuclei count vs DMSO), 5 days (fraction); higher = more cells survive
NCI-H3122 = test system: NCI-H3122
Summary of the method: (§1)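 For relative viability, nuclei counts in treated wells were divided by those in vehicle wells. Lung cancer cell lines had been pin-tool dosed in 1536-well plates the day after seeding and cultured for 5 days, then fixed and stained in one step (final 0.05% Triton X-100, 1% formaldehyde, 1 ug/ml Hoechst) and imaged at 4×. Doses were one drug alone or a fixed anchor-drug dose plus five library-drug doses (not always all listed) in √10 steps, and values are duplicate-plate medians.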

NCI-H596 = test system: NCI-H596
Summary of the method: as §1

PC-3 [JPC-3] = test system: PC-3 [JPC-3]
Summary of the method: as §1

LK-2 = test system: LK-2
Summary of the method: as §1

NCI-H2228 = test system: NCI-H2228
Summary of the method: as §1

NCI-H1944 = test system: NCI-H1944
Summary of the method: as §1

NCI-H2009 = test system: NCI-H2009
Summary of the method: as §1

LXF-289 = test system: LXF-289
Summary of the method: as §1

HOP-62 = test system: HOP-62
Summary of the method: as §1

SK-MES-1 = test system: SK-MES-1
Summary of the method: as §1

NCI-H727 = test system: NCI-H727
Summary of the method: as §1

NCI-H1993 = test system: NCI-H1993
Summary of the method: as §1

NCI-H322M = test system: NCI-H322M
Summary of the method: as §1

SW 1573 = test system: SW 1573
Summary of the method: as §1

HARA = test system: HARA
Summary of the method: as §1

ABC-1 = test system: ABC-1
Summary of the method: as §1

NCI-H1792 = test system: NCI-H1792
Summary of the method: as §1

A-427 = test system: A-427
Summary of the method: as §1

EMC-BAC-2 = test system: EMC-BAC-2
Summary of the method: as §1

Work on `COc1cc2nccc(Oc3ccc(NC(=O)Nc4cc(C)on4)c(Cl)c3)c2cc1OC` [Tivozanib] + C[C@]1(O)C[C@@H](c2nc(-c3ccc4ccc(-c5ccccc5)nc4c3)c3c(N)nccn32)C1 [Linsitinib] (partner 1 µM) yielded a relative viability (NCI-H3122; first compound 0.005 µM) of 1.1, a relative viability (NCI-H3122; first compound 0.01581 µM) of 1.04 and a relative viability (NCI-H3122; first compound 0.05 µM) of 1. For the same compound, the relative viability (NCI-H3122; first compound 0.1581 µM) was 1.19, the relative viability (NCI-H3122; first compound 0.5 µM) was 1.06 and the relative viability (NCI-H596; first compound 0.005 µM) was 1.1. The relative viability (NCI-H596; first compound 0.01581 µM) was 1.03, the relative viability (NCI-H596; first compound 0.05 µM) was 0.953 and the relative viability (NCI-H596; first compound 0.1581 µM) was 0.952. For the same compound, the relative viability (NCI-H596; first compound 0.5 µM) was 1.01, the relative viability (PC-3 [JPC-3]; first compound 0.005 µM) was 0.903 and the relative viability (PC-3 [JPC-3]; first compound 0.01581 µM) was 0.921. For the same compound, the relative viability (PC-3 [JPC-3]; first compound 0.05 µM) was 1, the relative viability (PC-3 [JPC-3]; first compound 0.1581 µM) was 1.01 and the relative viability (PC-3 [JPC-3]; first compound 0.5 µM) was 0.915. It also gave a relative viability (LK-2; first compound 0.005 µM) of 0.521, a relative viability (LK-2; first compound 0.01581 µM) of 0.616 and a relative viability (LK-2; first compound 0.05 µM) of 0.49. The relative viability (LK-2; first compound 0.1581 µM) was 0.601, the relative viability (LK-2; first compound 0.5 µM) was 0.393 and the relative viability (NCI-H2228; first compound 0.005 µM) was 0.504. For the same compound, the relative viability (NCI-H2228; first compound 0.01581 µM) was 0.683, the relative viability (NCI-H2228; first compound 0.05 µM) was 0.697 and the relative viability (NCI-H2228; first compound 0.1581 µM) was 0.569. It also gave a relative viability (NCI-H2228; first compound 0.5 µM) of 0.868, a relative viability (NCI-H1944; first compound 0.005 µM) of 1.14 and a relative viability (NCI-H1944; first compound 0.01581 µM) of 1.2. It also gave a relative viability (NCI-H1944; first compound 0.05 µM) of 1.29, a relative viability (NCI-H1944; first compound 0.1581 µM) of 1.1 and a relative viability (NCI-H1944; first compound 0.5 µM) of 1.21. The relative viability (NCI-H2009; first compound 0.005 µM) was 1.15, the relative viability (NCI-H2009; first compound 0.01581 µM) was 1.19 and the relative viability (NCI-H2009; first compound 0.05 µM) was 1.23. The relative viability (NCI-H2009; first compound 0.1581 µM) was 1.25, the relative viability (NCI-H2009; first compound 0.5 µM) was 1.23 and the relative viability (LXF-289; first compound 0.005 µM) was 0.974. For the same compound, the relative viability (LXF-289; first compound 0.01581 µM) was 0.929, the relative viability (LXF-289; first compound 0.05 µM) was 0.945 and the relative viability (LXF-289; first compound 0.1581 µM) was 1.02. It also gave a relative viability (LXF-289; first compound 0.5 µM) of 0.983, a relative viability (HOP-62; first compound 0.005 µM) of 0.87 and a relative viability (HOP-62; first compound 0.01581 µM) of 0.929. The relative viability (HOP-62; first compound 0.05 µM) was 1.16, the relative viability (HOP-62; first compound 0.1581 µM) was 0.932 and the relative viability (HOP-62; first compound 0.5 µM) was 0.988. It also gave a relative viability (SK-MES-1; first compound 0.005 µM) of 1.08, a relative viability (SK-MES-1; first compound 0.01581 µM) of 1.07 and a relative viability (SK-MES-1; first compound 0.05 µM) of 1.05. It also gave a relative viability (SK-MES-1; first compound 0.1581 µM) of 1.14, a relative viability (SK-MES-1; first compound 0.5 µM) of 1.07 and a relative viability (NCI-H727; first compound 0.005 µM) of 0.304. The relative viability (NCI-H727; first compound 0.01581 µM) was 0.256, the relative viability (NCI-H727; first compound 0.05 µM) was 0.244 and the relative viability (NCI-H727; first compound 0.5 µM) was 0.357. The relative viability (NCI-H1993; first compound 0.005 µM) was 0.698, the relative viability (NCI-H1993; first compound 0.01581 µM) was 0.777 and the relative viability (NCI-H1993; first compound 0.05 µM) was 0.79. The relative viability (NCI-H1993; first compound 0.1581 µM) was 0.638, the relative viability (NCI-H1993; first compound 0.5 µM) was 0.758 and the relative viability (NCI-H322M; first compound 0.005 µM) was 0.942. For the same compound, the relative viability (NCI-H322M; first compound 0.01581 µM) was 0.961, the relative viability (NCI-H322M; first compound 0.05 µM) was 0.989 and the relative viability (NCI-H322M; first compound 0.1581 µM) was 0.92. The relative viability (NCI-H322M; first compound 0.5 µM) was 0.825, the relative viability (SW 1573; first compound 0.005 µM) was 0.896 and the relative viability (SW 1573; first compound 0.01581 µM) was 0.826. For the same compound, the relative viability (SW 1573; first compound 0.05 µM) was 0.921, the relative viability (SW 1573; first compound 0.1581 µM) was 0.819 and the relative viability (SW 1573; first compound 0.5 µM) was 0.86. The relative viability (HARA; first compound 0.005 µM) was 0.915, the relative viability (HARA; first compound 0.01581 µM) was 0.838 and the relative viability (HARA; first compound 0.05 µM) was 1.11. For the same compound, the relative viability (HARA; first compound 0.1581 µM) was 1.01, the relative viability (HARA; first compound 0.5 µM) was 0.99 and the relative viability (ABC-1; first compound 0.005 µM) was 0.716. It also gave a relative viability (ABC-1; first compound 0.01581 µM) of 0.887, a relative viability (ABC-1; first compound 0.05 µM) of 0.676 and a relative viability (ABC-1; first compound 0.1581 µM) of 0.745. The relative viability (ABC-1; first compound 0.5 µM) was 0.783, the relative viability (NCI-H1792; first compound 0.005 µM) was 0.535 and the relative viability (NCI-H1792; first compound 0.01581 µM) was 0.581. For the same compound, the relative viability (NCI-H1792; first compound 0.05 µM) was 0.534, the relative viability (NCI-H1792; first compound 0.1581 µM) was 0.698 and the relative viability (NCI-H1792; first compound 0.5 µM) was 0.592. The relative viability (A-427; first compound 0.005 µM) was 1.09, the relative viability (A-427; first compound 0.01581 µM) was 1.1 and the relative viability (A-427; first compound 0.05 µM) was 1.23. It also gave a relative viability (A-427; first compound 0.1581 µM) of 0.987, a relative viability (A-427; first compound 0.5 µM) of 1.07 and a relative viability (EMC-BAC-2; first compound 0.005 µM) of 0.847. The relative viability (EMC-BAC-2; first compound 0.01581 µM) was 0.787, the relative viability (EMC-BAC-2; first compound 0.05 µM) was 0.844 and the relative viability (EMC-BAC-2; first compound 0.1581 µM) was 0.782. For the same compound, the relative viability (EMC-BAC-2; first compound 0.5 µM) was 0.821.

From the supplement of paper PMC10307832
